Assay results from patent publication US8426437B2, “Pyrroloquinoline derivatives and their use as protein kinases inhibitors” (Pierre Fabre Medicament, priority 2005, dated 2013).
Where a name gives a salt, the structure may show the parent alone.

Key:
Assay type in all cases: biochemical
TrkA = target: T1, TrkA (Homo sapiens, UniProt P04629); test: Inhibition of kinase TrkA (Kinase-Glo); settings: TrkA 4 μg/ml, 30 μM ATP, two hours at 30° C.
T1 construct: purchased Upstate 14-571
Experimental: Protein TrkA (Upstate 14-571; batch #25634U) is incubated at a concentration of 4 μg/ml in a buffer containing 8 mM of MOPS/NaOH pH7, 0.2 mM EDTA, 40 mM MgAc (Sigma #229768), 1 mM DTT (Fluka #43816), NaOV 1 mM, 0.01% Triton Tx100, in the presence of 1 mg/ml of peptide substrate poly-EY (Upstate #P0275), and 30 μM of ATP.
The dilution buffer for TrkA is as follows: 20 mM MOPS/NaOH pH7, 1 mM EDTA, 5% glycerol, 0.01% Brij35, 0.1% 2-mercapto, 1 mg/ml BSA.
(§1) The compound to be tested is first added to the enzyme to give a reaction volume of 50 μl. The dilution of the compounds of the invention is distributed so as to obtain a scale of final concentrations between 10 nM and 30 μM.
(§2) After incubation of the reaction mixture for two hours at 30° C., the level of ATP that remains is assayed using the Kinase-Glo Luminescent Kinase Assay (Promega #V6712) according to the conditions recommended by the supplier. The luminescence induced is read in a plate reader (Envision-Perkin Elmer).

RET = target: T2, RET (Homo sapiens, UniProt P07949); test: Inhibition of RET kinase activity, recombinant RET method (Kinase-Glo); settings: RET 2 μg/ml, poly-EY4 substrate, 20 μM ATP, two hours at 30° C.
T2 construct: purchased Upstate 14-570MG
T2 sequence (P07949 29-1114): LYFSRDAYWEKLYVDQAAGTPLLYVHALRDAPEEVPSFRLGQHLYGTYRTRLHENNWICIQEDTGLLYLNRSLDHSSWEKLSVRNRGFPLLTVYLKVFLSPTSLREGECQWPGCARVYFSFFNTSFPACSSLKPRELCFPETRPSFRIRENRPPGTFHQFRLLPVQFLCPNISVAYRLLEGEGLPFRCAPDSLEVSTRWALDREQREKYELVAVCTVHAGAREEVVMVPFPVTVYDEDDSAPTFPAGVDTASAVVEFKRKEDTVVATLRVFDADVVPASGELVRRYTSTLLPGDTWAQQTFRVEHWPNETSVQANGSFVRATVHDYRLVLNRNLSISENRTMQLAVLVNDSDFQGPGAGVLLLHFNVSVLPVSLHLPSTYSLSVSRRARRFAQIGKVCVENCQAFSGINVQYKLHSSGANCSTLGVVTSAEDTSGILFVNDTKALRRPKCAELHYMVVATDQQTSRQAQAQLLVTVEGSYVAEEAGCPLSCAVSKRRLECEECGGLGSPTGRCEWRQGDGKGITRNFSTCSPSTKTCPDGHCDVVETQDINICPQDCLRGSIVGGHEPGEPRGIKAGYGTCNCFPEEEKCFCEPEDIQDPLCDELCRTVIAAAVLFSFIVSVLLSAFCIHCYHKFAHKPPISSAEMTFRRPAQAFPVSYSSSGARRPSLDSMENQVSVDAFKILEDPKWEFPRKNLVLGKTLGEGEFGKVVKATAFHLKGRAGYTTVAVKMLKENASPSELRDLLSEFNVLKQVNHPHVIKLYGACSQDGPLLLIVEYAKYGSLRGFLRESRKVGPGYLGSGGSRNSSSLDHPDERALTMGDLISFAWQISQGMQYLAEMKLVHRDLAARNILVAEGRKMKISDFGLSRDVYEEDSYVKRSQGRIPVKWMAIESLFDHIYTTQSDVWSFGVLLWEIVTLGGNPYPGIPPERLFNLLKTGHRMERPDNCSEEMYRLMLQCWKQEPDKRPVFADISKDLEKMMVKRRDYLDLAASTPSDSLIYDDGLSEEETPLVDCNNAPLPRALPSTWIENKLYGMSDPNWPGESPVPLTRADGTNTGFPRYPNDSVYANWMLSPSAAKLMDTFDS
Procedure, shortened: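 Recombinant RET at 2 μg/ml in 20 mM MOPS/NaOH pH 7.0, 1 mM EDTA, 5% glycerol, 0.01% Brij35, 0.1% 2-mercaptoethanol, 1 mg/ml BSA; compounds 10 nM–30 μM final.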

TrkB = target: T3, TrkB (Homo sapiens, UniProt Q16620); test: Inhibition of kinase TrkB (Kinase-Glo); settings: TrkB 4 μg/ml, 40 μM ATP, two hours at 30° C.
T3 construct: purchased Upstate 14-507
T3 sequence (Q16620 32-822): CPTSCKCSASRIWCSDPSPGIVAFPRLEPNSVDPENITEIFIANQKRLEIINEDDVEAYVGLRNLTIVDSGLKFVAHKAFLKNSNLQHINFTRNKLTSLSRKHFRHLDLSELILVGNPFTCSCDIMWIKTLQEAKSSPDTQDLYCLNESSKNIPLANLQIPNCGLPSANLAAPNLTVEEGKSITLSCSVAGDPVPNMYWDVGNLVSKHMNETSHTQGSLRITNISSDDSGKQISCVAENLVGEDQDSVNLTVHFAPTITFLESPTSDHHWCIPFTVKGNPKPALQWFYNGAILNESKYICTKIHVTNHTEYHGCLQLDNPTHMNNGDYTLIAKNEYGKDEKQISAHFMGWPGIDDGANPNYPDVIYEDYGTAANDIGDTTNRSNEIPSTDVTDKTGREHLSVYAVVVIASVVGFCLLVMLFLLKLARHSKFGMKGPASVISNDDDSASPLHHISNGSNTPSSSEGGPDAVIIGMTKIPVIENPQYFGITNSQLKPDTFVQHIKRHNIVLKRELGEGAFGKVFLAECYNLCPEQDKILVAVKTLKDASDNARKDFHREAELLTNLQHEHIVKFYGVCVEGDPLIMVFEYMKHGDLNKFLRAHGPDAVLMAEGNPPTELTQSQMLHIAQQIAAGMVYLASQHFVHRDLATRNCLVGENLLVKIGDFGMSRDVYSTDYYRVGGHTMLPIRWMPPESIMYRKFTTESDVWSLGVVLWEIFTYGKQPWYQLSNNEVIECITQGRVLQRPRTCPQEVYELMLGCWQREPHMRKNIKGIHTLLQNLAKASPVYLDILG
Experimental: Protein TrkB (Upstate 14-507; batch #25578U) is incubated at a concentration of 4 μg/ml in a buffer containing 8 mM of MOPS/NaOH pH7, 0.2 mM EDTA, 40 mM MgAc (Sigma #229768), 1 mM DTT (Fluka #43816), NaOV 1 mM, 25 mM 2-glycerolphosphate (Sigma #G9891), in the presence of 2.5 mg/ml of peptide substrate poly-EY (Upstate #P0275), and 40 μM of ATP.
The dilution buffer for TrkB is as follows: 20 mM MOPS/NaOH pH7, 1 mM EDTA, 5% glycerol, 0.01% Brij35, 0.1% 2-mercapto, 1 mg/ml BSA.
as §1, §2

PIM-1 = target: T4, PIM-1 (Homo sapiens, UniProt P11309); test: Inhibition of kinase PIM-1 (Kinase-Glo); settings: PIM-1 0.625 μg/ml, 10 μM ATP, forty minutes at 30° C.
T4 construct: purchased Upstate 14-573
T4 sequence (P11309 whole entry): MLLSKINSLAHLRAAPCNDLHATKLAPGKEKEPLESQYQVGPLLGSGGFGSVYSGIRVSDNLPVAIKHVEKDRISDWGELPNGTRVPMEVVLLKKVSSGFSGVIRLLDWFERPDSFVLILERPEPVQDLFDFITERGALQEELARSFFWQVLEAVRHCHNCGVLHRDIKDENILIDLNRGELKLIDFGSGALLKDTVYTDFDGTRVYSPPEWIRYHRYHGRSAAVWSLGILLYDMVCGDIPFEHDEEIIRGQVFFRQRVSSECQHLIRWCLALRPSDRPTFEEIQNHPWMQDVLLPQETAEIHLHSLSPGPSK
Experimental: Protein PIM-1 (Upstate #14-573 batch 25864U) is incubated at a concentration of 0.625 μg/ml in a buffer containing 8 mM of MOPS/NaOH pH7, 0.2 mM EDTA, 5 mM MgAc (Sigma #229768), 0.01% Triton Tx100, in the presence of 70 μM of peptide substrate S6 Kinase/Rsk2 (Upstate #12-243), and 10 μM of ATP.
The dilution buffer for PIM-1 is as follows: 20 mM MOPS/NaOH pH7, 1 mM EDTA, 5% glycerol, 0.01% Brij35, 0.1% 2-mercapto, 1 mg/ml BSA
as §1
as §2, with “forty minutes” for “two hours”

T1 sequence (P04629 33-796): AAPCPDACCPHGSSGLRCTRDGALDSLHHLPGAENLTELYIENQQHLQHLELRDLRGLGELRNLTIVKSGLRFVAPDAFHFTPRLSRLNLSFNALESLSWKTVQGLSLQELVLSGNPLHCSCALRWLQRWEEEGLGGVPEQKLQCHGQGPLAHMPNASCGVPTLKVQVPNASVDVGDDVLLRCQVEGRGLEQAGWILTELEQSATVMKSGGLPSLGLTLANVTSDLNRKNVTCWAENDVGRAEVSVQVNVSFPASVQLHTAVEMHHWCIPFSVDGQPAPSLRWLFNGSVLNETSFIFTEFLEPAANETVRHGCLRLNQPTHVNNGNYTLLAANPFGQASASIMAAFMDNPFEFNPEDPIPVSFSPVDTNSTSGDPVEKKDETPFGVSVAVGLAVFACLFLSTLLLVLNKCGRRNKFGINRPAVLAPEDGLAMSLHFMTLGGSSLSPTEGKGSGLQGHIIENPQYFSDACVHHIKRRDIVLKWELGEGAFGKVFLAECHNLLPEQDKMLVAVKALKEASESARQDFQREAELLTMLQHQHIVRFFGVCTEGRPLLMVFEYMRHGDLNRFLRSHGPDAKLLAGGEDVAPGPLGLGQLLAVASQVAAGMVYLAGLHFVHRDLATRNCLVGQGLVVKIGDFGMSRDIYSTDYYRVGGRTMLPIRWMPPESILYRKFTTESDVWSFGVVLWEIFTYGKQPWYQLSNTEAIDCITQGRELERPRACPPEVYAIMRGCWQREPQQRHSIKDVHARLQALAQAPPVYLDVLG

SMILES	IC50 (TrkA) [nM]	IC50 (RET) [nM]	IC50 (TrkB) [nM]	IC50 (PIM-1) [nM]
CCOC(=O)c1c[nH]c2c(=O)[nH]c3ccc(S(=O)(=O)N4CCCC4)cc3c12 [Compound 162, 4-Oxo-8-(pyrrolidine-1-sulfonyl)-4,5-dihydro-3H-pyrrolo[2,3-c]quinoline-1-ethyl carboxylate]	1000 to 10000	100 to 1000	1000 to 10000	–
CCOC(=O)c1c[nH]c2c(=O)[nH]c3ccc(N(C)S(=O)(=O)c4ccccc4)cc3c12 [Compound 58, 8-(Benzenesulfonyl-methyl-amino)-4-oxo-4,5-dihydro-3H-pyrrolo[2,3-c]quinoline-1-ethyl carboxylate]	1000 to 10000	100 to 1000	1000 to 10000	–
CCOC(=O)c1c[nH]c2c(=O)[nH]c3ccc(NS(=O)(=O)c4ccc(F)cc4)cc3c12 [Compound 43, 8-(4-Fluoro-benzenesulfonylamino)-4-oxo-4,5-dihydro-3H-pyrrolo[2,3-c]quinoline-1-ethyl carboxylate]	1000 to 10000	100 to 1000	1000 to 10000	–
COC(=O)c1c[nH]c2c(=O)[nH]c3ccc(S(=O)(=O)NC4CCCCC4)cc3c12 [Compound 111, 8-Cyclohexylsulfamoyl-4-oxo-4,5-dihydro-3H-pyrrolo[2,3-c]quinoline-1-methyl carboxylate]	1000 to 10000	1000 to 10000	1000 to 10000	–
CCOC(=O)c1c[nH]c2c(=O)[nH]c3ccc(-c4csc(N)n4)cc3c12 [Compound 270, 8-(2-Amino-thiazol-4-yl)-4-oxo-4,5-dihydro-3H-pyrrolo[2,3-c]quinoline-1-ethyl carboxylate]	–	100 to 1000	–	10000 to 100000
CCOC(=O)c1c[nH]c2c(=O)[nH]c3ccc(/C=C/c4ccccc4)cc3c12 [Compound 70, 4-Oxo-8-styryl-4,5-dihydro-3H-pyrrolo[2,3-c]quinoline-1-ethyl carboxylate]	–	1000 to 10000	–	1000 to 10000
CCOC(=O)c1c[nH]c2c(=O)[nH]c3ccc(N)cc3c12 [Compound 64, 8-Amino-4-oxo-4,5-dihydro-3H-pyrrolo[2,3-c]quinoline-1-ethyl carboxylate]	–	1000 to 10000	–	10000 to 100000
CCOC(=O)c1c[nH]c2c(=O)[nH]c3ccc(S(=O)(=O)Nc4cccc(OC)c4)cc3c12 [Compound 8, 8-(3-Methoxy-phenylsulfamoyl)-4-oxo-4,5-dihydro-3H-pyrrolo[2,3-c]quinoline-1-ethyl carboxylate]	10000 to 100000	100 to 1000	10000 to 100000	–
CCOC(=O)c1c[nH]c2c(=O)[nH]c3ccc(SC4CCCCC4)cc3c12 [Compound 221, 8-Cyclohexylsulfanyl-4-oxo-4,5-dihydro-3H-pyrrolo[2,3-c]quinoline-1-ethyl carboxylate]	–	100 to 1000	–	1000 to 10000
CCOC(=O)c1c[nH]c2c(=O)[nH]c3ccc(I)cc3c12 [Compound 209, 8-Iodo-4-oxo-4,5-dihydro-3H-pyrrolo[2,3-c]quinoline-1-ethyl carboxylate]	–	100 to 1000	–	100 to 1000
CCOC(=O)c1c[nH]c2c(=O)[nH]c3ccc(S(=O)(=O)Nc4ccc(C)cc4)cc3c12 [Compound 6, 4-Oxo-8-p-tolylsulfamoyl-4,5-dihydro-3H-pyrrolo[2,3-c]quinoline-1-ethyl carboxylate]	10000 to 100000	100 to 1000	10000 to 100000	–

The remaining lines, values ahead:

IC50 (TrkA) [nM]	IC50 (RET) [nM]	IC50 (TrkB) [nM]	IC50 (PIM-1) [nM]	SMILES
1000 to 10000	1000 to 10000	1000 to 10000	–	CCOC(=O)c1c[nH]c2c(=O)[nH]c3ccc(-c4ccnc(Nc5ccccc5)n4)cc3c12 [Compound 266, 4-Oxo-8-(2-phenylamino-pyrimidin-4-yl)-4,5-dihydro-3H-pyrrolo[2,3-c]quinoline-1-ethyl carboxylate]
10000 to 100000	1000 to 10000	10000 to 100000	–	CCOC(=O)c1c[nH]c2c(=O)[nH]c3ccc(-c4ccnc(Nc5nc6ccccc6[nH]5)n4)cc3c12 [Compound 267, 8-[2-(1H-Benzoimidazol-2-ylamino)-pyrimidin-4-yl]-4-oxo-4,5-dihydro-3H-pyrrolo[2,3-c]quinoline-1-ethyl carboxylate]
1000 to 10000	1000 to 10000	1000 to 10000	–	CCOC(=O)c1c[nH]c2c(=O)[nH]c3ccc(NS(=O)(=O)c4ccccc4F)cc3c12 [Compound 45, 8-(2-Fluoro-benzenesulfonylamino)-4-oxo-4,5-dihydro-3H-pyrrolo[2,3-c]quinoline-1-ethyl carboxylate]
1000 to 10000	< 100	1000 to 10000	–	CCOC(=O)c1c[nH]c2c(=O)[nH]c3ccc(S(=O)(=O)Nc4ccccc4)cc3c12 [Compound 2, 4-Oxo-8-phenylsulfamoyl-4,5-dihydro-3H-pyrrolo[2,3-c]quinoline-1-ethyl carboxylate]
–	1000 to 10000	–	1000 to 10000	CCOC(=O)c1c[nH]c2c(=O)[nH]c3ccc(-c4ccnc(N5CCN(C(C)=O)CC5)n4)cc3c12 [Compound 268, 8-[2-(4-Acetyl-piperazin-1-yl)-pyrimidin-4-yl]-4-oxo-4,5-dihydro-3H-pyrrolo[2,3-c]quinoline-1-ethyl carboxylate]
10000 to 100000	10000 to 100000	1000 to 10000	–	CCOC(=O)c1c[nH]c2c(=O)[nH]c3ccc(NS(=O)(=O)c4ccc(C(C)(C)C)cc4)cc3c12 [Compound 49, 8-(4-tert-Butyl-benzenesulfonylamino)-4-oxo-4,5-dihydro-3H-pyrrolo[2,3-c]quinoline-1-ethyl carboxylate]
–	100 to 1000	–	100 to 1000	CCOC(=O)c1c[nH]c2c(=O)[nH]c3ccc(-c4ccc(N)cc4)cc3c12 [Compound 244, 8-(4-Aminophenyl)-4-oxo-4,5-dihydro-3H-pyrrolo[2,3-c]quinoline-1-ethyl carboxylate]
–	1000 to 10000	–	1000 to 10000	CCOC(=O)c1c[nH]c2c(=O)[nH]c3ccc(-c4ccnc(N(C)C)n4)cc3c12 [Compound 262, 8-(2-Dimethylamino-pyrimidin-4-yl)-4-oxo-4,5-dihydro-3H-pyrrolo[2,3-c]quinoline-1-ethyl carboxylate]
–	10000 to 100000	–	10000 to 100000	CN(C)CCNC(=O)c1c[nH]c2c(=O)[nH]c3ccccc3c12 [Compound 79, N-(2-Dimethylamino-ethyl)-4-oxo-4,5-dihydro-3H-pyrrolo[2,3-c]quinoline-1-carboxamide]
1000 to 10000	100 to 1000	1000 to 10000	–	CCOC(=O)c1c[nH]c2c(=O)[nH]c3ccc(NS(=O)(=O)c4cccs4)cc3c12 [Compound 56, 4-Oxo-8-(thiophene-2-sulfonylamino)-4,5-dihydro-3H-pyrrolo[2,3-c]quinoline-1-ethyl carboxylate]
–	100 to 1000	–	1000 to 10000	CCOC(=O)c1c[nH]c2c(=O)[nH]c3ccc(-c4ccnc(NC)n4)cc3c12 [Compound 263, 8-(2-Methylamino-pyrimidin-4-yl)-4-oxo-4,5-dihydro-3H-pyrrolo[2,3-c]quinoline-1-ethyl carboxylate formate]
–	1000 to 10000	–	1000 to 10000	CCOC(=O)c1c[nH]c2c(=O)[nH]c3ccc(S(=O)(=O)NCC4CCNCC4)cc3c12 [Compound 121, 4-Oxo-8-[(piperidin-4-ylmethyl)-sulfamoyl]-4,5-dihydro-3H-pyrrolo[2,3-c]quinoline-1-ethyl carboxylate]
–	100 to 1000	–	1000 to 10000	CCOC(=O)c1c[nH]c2c(=O)[nH]c3ccc(-c4csc(C5CCNCC5)n4)cc3c12 [Compound 277, 4-Oxo-8-(2-piperidin-4-yl-thiazol-4-yl)-4,5-dihydro-3H-pyrrolo[2,3-c]quinoline-1-ethyl carboxylate]
